Where no end group is shown, it is not given here.
Columns and labels:
[1] = system: mononuclear cells isolated from the bone marrow; assay: DC induced in vitro from bone marrow cells with GM-CSF with or without TSLP, VIP or TGF-β; type: cell-based, C57BL/6 mice; settings: for expression of IL-6 and IL-12: GM-CSF in the presence of factor, bacterial stimulation, compared to GM-CSF alone; for CD11c+/CD86+ in total BM cells: 7 day incubation
From the text: The surface phenotypes of CD11c+DC in the BM culture were monitored by flow cytometry and the proportionality of each phenotype is expressed as a percent (%) of the total mononuclear cells (MNC) (FIG. 5, Table 1).
The present invention provides for a material-based local application of GM-CSF with appropriate DC influencing factors that leads to tolerogenic DCs (tDCs), and subsequent enrichment of iTreg cells. Candidate biofactors include thymic stromal lymphopoietin (TSLP), vasoactive intestinal peptide (VIP), and transforming growth factor-beta (TGF-β). Screening is based on the induced DC's anti-inflammatory properties. […] Overall, these observations that the combination of GM-CSF with TSLP efficiently induces DC with an anti-inflammatory phenotype.

[2] = system: Jaws II cells; assay: transwell migration of Jaws II DC; type: cell-based; settings: 10^−6 or 10^−7 M dexamethasone
[3] = system: primary bone marrow dendritic cells (BMDC); assay: dexamethasone effect on surface markers of bone marrow dendritic cells (FACS); type: cell-based, mouse
Description: Flow cytometry was conducted according to standard protocols. Cells were harvested, washed, and resuspended to a final cell concentration of 1-5 million cells/ml in ice cold phosphate buffered saline (PBS) with 10% fetal bovine serum (FBS) and 1% sodium azide. Anti-mouse antibodies including anti-CD11c, MHC II, CD80, CD86, and OVA 257-264 bound to H-2Kb were then aliquotted according to the manufacturer's recommended dilutions (Ebioscience). During staining, cells were incubated for 20 minutes at room temperature and then 20 minutes on ice. The cells were then washed and kept on ice until analysis. Some samples were fixed in 1% paraformaldehyde (PFA) for later flow cytometric studies. Flow cytometry was conducted on the BD LSR II or the BD Fortessa. Analysis was done using Flowjo (Tree Star Inc.).
The listed concentrations of dexamethasone were added on day 6 and day 8. For the lipopolysaccharide (LPS) condition, LPS was added to a concentration of 50 ng/ml on day 9. […] “LPS” samples had LPS, but no dexamethasone.
For these studies, dexamethasone was added on day 6 and day 8. LPS was added to a concentration of 50 ng/ml on day 9. […] “LPS” samples had LPS, but no dexamethasone.

[4] = system: BMDC; assay: IL-12p70 elaboration from BMDC (ELISA); settings: 100 nM, LPS 50 ng/ml
[5] = system: BMDC; assay: MHC II and co-stimulatory molecule surface presentation on BMDC after LPS; type: cell-based, mouse; settings: 100 nM compound, next day 50 ng/ml LPS; mean ± SD
Description: Day 9 BMDC were harvested from 100 mm diameter plates and seeded into 6 wells of a tissue culture plate in R10 media containing 100 nM dexamethasone or dexamethasone-[…] […] The BD LSR Fortessa was used to analyze the cells. Histograms were created using Flowjo (Tree Star Inc.) and statistical analysis was done using InStat (GraphPad Software).

[6] = system: CD4+ T cells from OT-II mice; assay: CD4 T cell proliferation with peptide-MPS stimulated BMDCs; type: cell-based; settings: compared to peptide stimulation only
From the text: FIG. 54A-C are a set of graphs showing the effect of peptide-MPS conjugates on CD4 T cell proliferation, as evaluated in vitro. BMDCs were stimulated with […] (peptide) (SEQ ID NO: 19), […] (SEQ ID NO: 19) conjugated to MPS through SMCC (SMCC), and […] BMDCs were then washed thoroughly and co-cultured with CD4^+ T cells from OT-II mice. OT-II mice are enriched for CD4^+ T cells recognizing the […] (SEQ ID NO: 20) peptide.

[7] = system: bone marrow derived dendritic cells (BMDCs); assay: antigen presentation of […]-MPS conjugate by BMDCs (flow cytometry); type: cell-based; settings: 18 hours, versus peptide adsorbed to MPS
From the text: FIG. 53 is a pair of graphs evaluating the antigen presentation of […] (SEQ ID NO: 18)-MPS conjugate. […] Percentage of BMDCs presenting the peptide was quantified using flow cytometry.

[8] = system: B3Z T cell line; assay: B3Z cell: DC co-culture, CPRG assay; type: cell-based; settings: antigen concentrations greater than 10 nM
Description: (§1) 15 hours later, the cells were fixed and stained with X-gal (Imgenix) according to the manufacturer's instructions. The cells were photographed at 10× magnification using a standard bright field microscope. A similar protocol was followed for the chlorophenol […] staining assay (Imgenix), except that after 15 hours, the cells were washed and lysed in a chlorophenol red-β-D-galactopyranoside staining buffer. After a 4 hour incubation at 37° C., the absorbance at 590 nm was obtained.
The cells were then lysed and treated with the β-galactosidase substrate, chlorophenol red-β-D-galactopyranoside (CPRG). After 4 hours of incubation, the absorbance at 590 nm was obtained. Staining was due to β a-galactosidase expression driven by elements of the IL-2 promoter.

[9] = system: B3Z T cell line; assay: B3Z cell: DC co-culture, X-gal assay; type: cell-based
Description: as §1
Following a 15 hour co-culture, the cells were fixed, stained with X-gal, and imaged. The images were all obtained at 10× magnification and represent a typical distribution of cells (FIG. 29).

[10] = system: CD11c(+)CD86(+) DCs; assay: in vivo DC recruitment to subcutaneous GM-CSF loaded polymers; design: species or system C57BL/6J mice
From the text: (§2) FIGS. 4A-F are graphs and images showing data on the in vivo control of DC recruitment and programming. […] Numbers in FACS plots indicate the percentage of the cell population positive for both markers. (4D) is the percentage of total cells that were positive for the DC markers CD11c and CD86, in blank (-∘-) and GM-CSF (-•-) loaded polymers as a function of time post implantation. (4E) The total number of DCs isolated from blank (-∘-) and GM-CSF (-•-) loaded polymers as a function of time post implantation. (4F) The fractional increase in CD11c(+)CD86(+) DCs isolated from polymers at day-14 after implantation in response to doses of 1000, 3000 and 7000 ng of GM-CSF as compared to the control. Scale bar—500 μm. Values in 4A, 4D, 4E, and 4F represent mean and standard deviation (n=4 or 5); * P<0.05; ** P<0.01.
(§3) The polymer delivery vehicle presents GM-CSF in a defined spatiotemporal manner in vivo, following introduction into the tissue of interest. Exemplary vehicle quickly release approximately 60% of the bioactive GM-CSF load within the first 5 days, followed by slow and sustained release of bioactive GM-CSF over the next 10 days (FIG. 4A), to allow diffusion of the factor through the surrounding tissue and effectively recruit resident DCs. Polymers were loaded with 3 μg of GM-CSF and implanted into the dorsal subcutaneous site of C57BL/6J mice. […]

[11] = system: bone marrow derived murine dendritic cells; assay: chemokinesis of bone marrow dendritic cells toward alginate gels, time-lapse imaging; type: cell-based; settings: alginate gel with GM-CSF, cells followed for 8 hours
Description: GM-CSF enhanced chemokinesis of bone marrow dendritic cells in vitro. Alginate gels with or without GM-CSF ([…]) were placed in a petri dish and surrounded with collagen containing bone marrow derived murine dendritic cells (FIG. 14A). The cells were followed for 8 hours using time-lapse imaging. The velocity of the cells was calculated from initial and final position values and is plotted in FIGS. 14B and C in μm/min. Chemotaxis toward the alginate is given as the positive x coordinate (positive x is directed radially inward). Each dot reflects the velocity of 1 cell, and each plot is representative of three experiments. The average migration speed of cells in the presence of GM-CSF was 3.1 μm/min compared to 1.1 μm/min in the absence of GM-CSF.

[12] = release profile of GM-CSF from polymer delivery vehicle; type: physicochemical; settings: within the first 5 days
From the text: as §2, §3

[13] = system: JAWSII DCs; assay: GM-CSF effects on JAWSII DC recruitment, proliferation, emigration and activation in vitro; type: cell-based
Description: FIGS. 3A-C are graphs and FIG. 3D is a set of images showing data related to the concentration dependent effects of GM-CSF on DC proliferation, recruitment, activation and emigration in vitro. […] Migration counts measured at 12 hours. (3B) is the effects of GM-CSF concentration on the proliferation of JAWSII DCs. 0 (white bar), 50 (grey bar), and 500 ng/ml (black bar) of GM-CSF. […] Migration counts taken at 6 hours. (3D) are representative photomicrographs of TNF-α and LPS stimulated JAWSII DCs cultured in 5-50 or 500 ng/ml GM-CSF and stained for the activation markers MHCII and CCR7. Scale bar in (3D)—20 μm. Values in (3A-3C) represent mean and standard deviation (n=4); * P<0.05; ** P<0.01
High concentrations (>100 ng/ml) of GM-CSF, however, inhibited DC migration toward the LN-derived chemokine CCL19 (FIG. 3C).

## VIP: vasoactive intestinal peptide (HSDAVFTDNYTRLRKQMAVKKYLNSILN; ends and bridges not checked; UniProt P01282 125-152, looked up)
[1]
  expression of IL-6 and IL-12: diminished expression
[1]; GM-CSF plus factor (100 ng/ml), 7 days, bacterial challenge
  IL-10 production by induced DC: did not up-regulate

## C[C@@H]1C[C@H]2[C@@H]3CCC4=CC(=O)C=C[C@]4(C)[C@@]3(F)[C@@H](O)C[C@]2(C)[C@@]1(O)C(=O)CO [dexamethasone]
[2]
  number of cells that migrated to CCL20 relative to control: approximately 1.8 fold
[3]; LPS treated
  dexamethasone concentrations with MHC II, CD80, CD86 staining reduced compared to LPS positive control: greater than or equal to 10^−8 M
[3]; immature BMDC cultures
  dexamethasone concentrations that reduced CD11c expression: ≥ 10^−8 M
[3]; mature DC treated with LPS 50 ng/ml
  dexamethasone concentration at which inhibition of CD11c+ staining begins: around 10^−8 M
[4]
  reduction of IL-12 elaboration from BMDC, factor: ~4
[5]
  MFI CD80: 3100 ± 100^δ
  MFI CD86: 2050 ± 5^β
  MFI MHC II: 540 ± 20^α

## CISQAVHAAHAEINEAGR (SEQ ID NO: 19) conjugated to MPS through SMCC: ovalbumin CD4 epitope conjugated to MPS through stable SMCC linker (also: conjugated to MPS via SMCC linker)
[6]
  CD4 T cell proliferation: significantly higher T cell proliferation

## SPDP CSIINFEKL (SEQ ID NO: 18)-MPS: ovalbumin CD8 epitope CSIINFEKL conjugated to MPS through reducible SPDP linker (also: SPDP linker to MPS)
[7]; 10 nM
  BMDCs presenting the peptide: significantly better presented
[7]; 100 nM
  BMDCs presenting the peptide: comparable levels

## SIINFEKL (Exemplary ovalbumin peptide.)
[8]
  CPRG hydrolysis versus dexamethasone-SIINFEKL groups: greater CPRG hydrolysis
[9]; 0.05 μM peptide
  X-gal staining of B3Z cells: many positive cells
[9]; 1.0 μM peptide
  X-gal staining of B3Z cells: numerous positive cells

## TGF-β
[1]
  CD11c+/CD86+ in total BM cells: 10.5%
  expression of IL-6 and IL-12: diminished expression

## TSLP: thymic stromal lymphopoietin
[1]
  expression of IL-6 and IL-12: diminished expression

## CISQAVHAAHAEINEAGR (SEQ ID NO: 19) conjugated to MPS through SPDP: ovalbumin CD4 epitope conjugated to MPS through reducible SPDP linker (also: conjugated to MPS via SPDP linker)
[6]
  CD4 T cell proliferation: significantly higher T cell proliferation

## GM-CSF
[10]; 3 μg GM-CSF loaded polymers
  CD11c(+)CD86(+) DCs by FACS: increased not just the total cell number, but also the percentage of infiltrating cells that were DCs
[10]; 3 μg GM-CSF, day-14, compared to control
  total cellular infiltration at the site: significantly enhanced
[11]
  average migration speed of cells: 3.1 μm/min
[12]
  bioactive GM-CSF load released: approximately 60%
[13]; high concentrations of GM-CSF
  DC activation via TNF-α and LPS stimulation (MHCII, CCR7 expression): suppressed DC activation
[13]; in vitro
  DC recruitment and proliferation: enhanced DC recruitment and proliferation in a dose-dependent manner
[13]; transwell
  GM-CSF concentrations that inhibited DC migration toward CCL19: > 100 ng/mL
[1]
  CD11c+/CD86+ in total BM cells: 14.7%

— US20180117171A1, “IMMUNOCONJUGATES FOR PROGRAMMING OR REPROGRAMMING OF CELLS” (President and Fellows of Harvard College, priority 2015, published 2018)
